Reference: paper PMC6271639, “Lycodine-Type Alkaloids from Lycopodiastrum casuarinoides and Their Acetylcholinesterase Inhibitory Activity” (Molecules, 2014)

How the values were obtained:
[1] = molecular target: T1, AChE (EC3.1.1.7, Sigma product no. C2888) (Electrophorus electricus, UniProt O42275); test: AChE inhibition by modified Ellman's method in 96-well microplates; type: biochemical; details: for AChE inhibitory activity in words: qualitative statement
T1 construct: purchased Sigma (St. Louis, MO, USA) C2888
Description: The isolated lycodine-type alkaloids 1–14 were evaluated for their AChE inhibiting activity by Ellman’s method in 96-well microplates.
AChE (EC3.1.1.7, Sigma product no. C2888), acetylthiocholine iodide (ATCI), 5,5'-dithiobis [2-nitrobenzoic acid] (DTNB) and huperzine A (purity 98%) were purchased from Sigma (St. Louis, MO, USA).
Briefly, 0.1 M sodium phosphate buffer (140 µL, pH = 8.0), sample solution (20 µL) and enzyme solution (15 µL) were mixed and incubated at 4 °C for 20 min. Ten µL of 0.01 M DTNB was added and the reaction was then started by adding 0.075 M ATCI (10 µL). […] Blanks were set up by adding 20 µL buffer solutions instead of 20 µL sample solution. Experiment control was set up by adding 15 µL buffer solutions instead of 15 µL enzyme solution in order to deduct the sample background. All reactions were carried out thrice.

AChE = details: previously reported ref 8, 13, 21; cited from earlier work

T1 sequence (O42275 24-633): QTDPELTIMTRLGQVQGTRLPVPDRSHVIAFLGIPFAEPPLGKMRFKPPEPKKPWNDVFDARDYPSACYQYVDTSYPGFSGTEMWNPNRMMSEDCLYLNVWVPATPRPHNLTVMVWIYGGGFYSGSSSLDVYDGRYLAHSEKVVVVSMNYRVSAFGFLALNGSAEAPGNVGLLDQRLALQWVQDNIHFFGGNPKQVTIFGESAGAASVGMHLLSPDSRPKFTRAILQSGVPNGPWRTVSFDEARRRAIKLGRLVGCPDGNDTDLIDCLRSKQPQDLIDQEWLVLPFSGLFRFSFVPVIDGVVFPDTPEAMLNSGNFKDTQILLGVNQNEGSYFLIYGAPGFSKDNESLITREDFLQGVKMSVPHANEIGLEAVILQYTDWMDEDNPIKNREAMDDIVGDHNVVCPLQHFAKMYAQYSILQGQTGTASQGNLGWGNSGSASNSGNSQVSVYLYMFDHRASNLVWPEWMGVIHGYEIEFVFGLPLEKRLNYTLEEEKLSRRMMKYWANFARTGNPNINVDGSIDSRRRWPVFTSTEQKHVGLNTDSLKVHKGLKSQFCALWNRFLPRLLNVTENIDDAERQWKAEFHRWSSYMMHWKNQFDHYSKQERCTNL

Row | Compound | AChE inhibitory activity in words [1] | IC50 [1] | IC50 (AChE)
1 | C=CC1C2C=C(C)CC1(N(C)C)c1ccc(=O)[nH]c1C2 (stereo not drawn) [Compound 5, huperzinine] | very weak activity |  | 
2 | C=CC1C2C=C(C)CC1(NC)c1ccc(=O)[nH]c1C2 (stereo not drawn) [Compound 7, N-demethylhuperzinine] |  | 1.9 ± 0.2 µM | 
3 | CC1=C[C@H]2Cc3[nH]c(=O)ccc3[C@]3(C1)NCCC[C@H]23 [Compound 9, huperzine B] | significant inhibitory activity | 20.2 ± 1.3 µM | 19.3 µM
4 | C=CC1C2C=C(CO)CC1(NC)c1ccc(=O)[nH]c1C2 (stereo not drawn) [Compound 10, casuarinine E] |  | > 250 µM | 
5 | C=C[C@@H]1[C@H]2C=C(CO)C[C@]1(N)c1ccc(=O)[nH]c1C2 [Compound 13, lycoparin C] | significant inhibitory activity | 23.9 ± 2.2 µM | 25 µM
